# Source: patent US9499538B2, “Estrogen receptor modulators and uses thereof” (Seragon Pharmaceuticals, Inc., priority 2012, dated 2016)
# Assays:
# MCF-7 cells = assay: Breast Cancer Cell Viability Assays (MCF-7, CellTiter-Glo); assay type: cell-based; settings: 5 days' compound exposure; for IC50: Homo sapiens, MCF7, 120 h
# Summary of the method: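 Percent viability, background-subtracted against untreated wells, was taken from CellTiter-Glo luminescence after 5 days' exposure of MCF-7 cells. Compounds were tested at eleven semilog concentrations, final 0.3–0.000003 μM, in RPMI containing 10% FBS.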
# ER-α in MCF-7 cells = target: T1, ER-α in MCF-7 cells (Homo sapiens, UniProt P03372); assay: Breast Cancer Cell ER-α In Cell Western Assay (SP1); assay type: cell-based; settings: 4 or 24 hr post compound addition; for Emax: MCF7, SP1 antibody, read-out: ER-α In Cell Western Assay (SP1) Max Response; for DC50: SP1 antibody, read-out: ER-α In Cell Western Assay (SP1) IC50
# T1 construct: endogenous in cells; host or cells: MCF-7
# T1 sequence (P03372 1-595): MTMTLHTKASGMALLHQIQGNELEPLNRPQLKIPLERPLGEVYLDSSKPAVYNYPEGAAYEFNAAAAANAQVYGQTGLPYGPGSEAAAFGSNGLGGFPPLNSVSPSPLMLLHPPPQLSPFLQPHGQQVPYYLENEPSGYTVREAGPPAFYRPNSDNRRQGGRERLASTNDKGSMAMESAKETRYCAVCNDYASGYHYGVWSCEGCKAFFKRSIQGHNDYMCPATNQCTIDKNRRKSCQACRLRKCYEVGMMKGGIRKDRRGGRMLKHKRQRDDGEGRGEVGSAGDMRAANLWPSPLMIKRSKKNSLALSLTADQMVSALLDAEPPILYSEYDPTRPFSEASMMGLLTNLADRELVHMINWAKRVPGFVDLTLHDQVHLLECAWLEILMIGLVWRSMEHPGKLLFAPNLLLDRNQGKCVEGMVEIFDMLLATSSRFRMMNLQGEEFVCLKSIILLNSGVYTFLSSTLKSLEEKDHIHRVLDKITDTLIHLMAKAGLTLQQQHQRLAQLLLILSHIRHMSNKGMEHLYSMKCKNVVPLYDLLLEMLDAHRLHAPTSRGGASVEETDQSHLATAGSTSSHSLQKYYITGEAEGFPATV
# Summary of the method: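 ER-α levels quantified by in-cell western: SP1 signal normalised to DRAQ5 DNA stain, relative to untreated cells (% ER). Compounds at 0.3–0.000003 μM final, 11-point semilog series, 4 or 24 h exposure of MCF-7 cells grown in charcoal-stripped serum.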
SMILES,MCF7 Viability Assay Max Response (MCF-7 cells),IC50 (MCF-7 cells) [nM],Emax (ER-α in MCF-7 cells) [%],DC50 (ER-α in MCF-7 cells) [nM]
"Fc1n[nH]c2ccc(/C(=C(/c3ccccc3)C3CCC3)c3ccc(/C=C/c4cccnc4)cc3)cc12 [Example 205, 5-((E)-2-Cyclobutyl-2-phenyl-1-(4-((E)-2-(pyridin-3-yl)vinyl)phenyl)vinyl)-3-fluoro-1H-indazole]",+ (+ = a single % value < 40%),> 100,≥ 40,≤ 100
"Fc1n[nH]c2ccc(/C(=C(/c3ccccc3)C3CCC3)c3ccc(/C=C/c4cn[nH]c4)cc3)cc12 [Example 206, 5-((E)-1-(4-((E)-2-(1H-Pyrazol-4-yl)vinyl)phenyl)-2-cyclobutyl-2-phenylvinyl)-3-fluoro-1H-indazole]",+ (+ = a single % value < 40%),≤ 100,≥ 40,≤ 100
"Fc1n[nH]c2ccc(/C(=C(/c3ccccc3)C3CCC3)c3ccc(/C=C/c4ccn[nH]4)cc3)cc12 [Example 207, 5-((E)-1-(4-((E)-2-(1H-Pyrazol-5-yl)vinyl)phenyl)-2-cyclobutyl-2-phenylvinyl)-3-fluoro-1H-indazole]",+ (+ = a single % value < 40%),> 100,≥ 40,≤ 100
"Fc1n[nH]c2ccc(/C(=C(/c3ccccc3)C3CCC3)c3ccc(/C=C/c4nnco4)cc3)cc12 [Example 208, 2-((E)-4-((E)-2-Cyclobutyl-1-(3-fluoro-1H-indazol-5-yl)-2-phenylvinyl)styryl)-1,3,4-oxadiazole]",++ (++ = a single % value ≧ 40%),≤ 100,≥ 40,≤ 100
"Fc1n[nH]c2ccc(/C(=C(/c3ccccc3)C3CCC3)c3ccc(/C=C/c4ncon4)cc3)cc12 [Example 209, 3-((E)-4-((E)-2-Cyclobutyl-1-(3-fluoro-1H-indazol-5-yl)-2-phenylvinyl)styryl)-1,2,4-oxadiazole]",+ (+ = a single % value < 40%),≤ 100,≥ 40,≤ 100
N=C(N)/C=C/c1ccc(/C(=C(\c2ccccc2)C2CCC2)c2ccc3[nH]nc(F)c3c2)cc1 [Example 210],++ (++ = a single % value ≧ 40%),≤ 100,≥ 40,≤ 100
"CC/C(=C(/c1ccc(/C=C/C(=O)O)cc1)c1ccc2[nH]ncc2c1)c1ccc(C(N)=O)cc1F [Example 211, (E)-3-(4-((E)-2-(4-Carbamoyl-2-fluorophenyl)-1-(1H-indazol-5-yl)but-1-en-1-yl)phenyl)acrylic acid]",+ (+ = a single % value < 40%),> 100,≥ 40,> 100
"O=C(O)/C=C/c1ccc(/C(=C(\c2ccc(F)cc2Cl)C2CCC2)c2coc3c(O)cccc23)cc1 [Example 212, (E)-3-(4-((E)-2-(2-Chloro-4-fluorophenyl)-2-cyclobutyl-1-(7-hydroxybenzofuran-3-yl)vinyl)phenyl)acrylic acid]",++ (++ = a single % value ≧ 40%),≤ 100,≥ 40,≤ 100
"O=C(O)/C=C/c1ccc(/C(=C(\c2ccncc2Cl)C2CCC2)c2coc3c(O)cccc23)cc1 [Example 213, (E)-3-(4-((E)-2-(3-Chloropyridin-4-yl)-2-cyclobutyl-1-(7-hydroxybenzofuran-3-yl)vinyl)phenyl)acrylic acid]",++ (++ = a single % value ≧ 40%),≤ 100,≥ 40,≤ 100
"O=C(O)/C=C/c1ccc(/C(=C(\c2ccnc(O)c2)C2CCC2)c2ccc3[nH]nc(F)c3c2)cc1 [Example 214, (E)-3-(4-((E)-2-Cyclobutyl-1-(3-fluoro-1H-indazol-5-yl)-2-(2-hydroxypyridin-4-yl)vinyl)phenyl)acrylic acid]",+ (+ = a single % value < 40%),> 100,≥ 40,> 100
Fc1n[nH]c2ccc(/C(=C(/c3ccccc3)C3CCC3)c3ccc(/C=C/c4ccccn4)cc3)cc12 [Example 215],++ (++ = a single % value ≧ 40%),≤ 100,≥ 40,≤ 100
"COc1ccc(/C(=C(\c2ccc(/C=C/C(=O)O)cc2)c2ccc3[nH]ncc3c2)C2CCC2)c(Cl)c1 [Example 216, (E)-3-(4-((E)-2-(2-Chloro-4-methoxyphenyl)-2-cyclobutyl-1-(1H-indazol-5-yl)vinyl)phenyl)acrylic acid]",++ (++ = a single % value ≧ 40%),≤ 100,≥ 40,≤ 100
"Cc1cc(CO)ccc1/C(=C(\c1ccc(/C=C/C(=O)O)cc1)c1ccc2[nH]nc(F)c2c1)C1CCC1 [Example 217, (E)-3-(4-((E)-2-Cyclobutyl-1-(3-fluoro-1H-indazol-5-yl)-2-(4-(hydroxymethyl)-2-methylphenyl)vinyl)phenyl)acrylic acid]",++ (++ = a single % value ≧ 40%),≤ 100,≥ 40,≤ 100
"N#Cc1ccc(/C(=C(\c2ccc(/C=C/C(=O)O)cc2)c2ccc3scnc3c2)C2CCC2)c(Cl)c1 [Example 218, (E)-3-(4-((E)-1-(Benzo[d]thiazol-5-yl)-2-(2-chloro-4-cyanophenyl)-2-cyclobutylvinyl)phenyl)acrylic acid]",++ (++ = a single % value ≧ 40%),≤ 100,≥ 40,≤ 100
"N#Cc1cc(Cl)ccc1/C(=C(\c1ccc(/C=C/C(=O)O)cc1)c1ccc2scnc2c1)C1CCC1 [Example 219, (E)-3-(4-((E)-1-(Benzo[d]thiazol-5-yl)-2-(4-chloro-2-cyanophenyl)-2-cyclobutylvinyl)phenyl)acrylic acid]",++ (++ = a single % value ≧ 40%),≤ 100,≥ 40,≤ 100
"O=C(O)/C=C/c1ccc(/C(=C(\c2ccc(Cl)cc2Cl)C2CCC2)c2ccc3nccn3c2)cc1 [Example 220, (E)-3-(4-((E)-2-Cyclobutyl-2-(2,4-dichlorophenyl)-1-(imidazo[1,2-a]pyridin-6-yl)vinyl)phenyl)acrylic acid]",++ (++ = a single % value ≧ 40%),≤ 100,≥ 40,≤ 100
"O=C(O)/C=C/c1ccc(/C(=C(\c2ccc(F)cc2C(F)(F)F)C2CCC2)c2ccc3nccn3c2)cc1 [Example 221, (E)-3-(4-((E)-2-Cyclobutyl-2-(4-fluoro-2-(trifluoromethyl)phenyl)-1-(imidazo[1,2-a]pyridin-6-yl)vinyl)phenyl)acrylic acid]",++ (++ = a single % value ≧ 40%),≤ 100,≥ 40,≤ 100
"N#Cc1c(/C(=C(/c2ccc(F)cc2Cl)C2CC2)c2ccc(/C=C/C(=O)O)cc2)ccc2[nH]nc(F)c12 [Example 222, (E)-3-(4-((E)-2-(2-Chloro-4-fluorophenyl)-1-(4-cyano-3-fluoro-1H-indazol-5-yl)-2-cyclopropylvinyl)phenyl)acrylic acid]",++ (++ = a single % value ≧ 40%),≤ 100,≥ 40,≤ 100
"O=C(O)/C=C/c1ccc(/C(=C(\c2ccc(Cl)cc2C(F)(F)F)C2CCC2)c2ccc3nccn3c2)cc1 [Example 223, (E)-3-(4-((E)-2-(4-Chloro-2-(trifluoromethyl)phenyl)-2-cyclobutyl-1-(imidazo[1,2-a]pyridin-6-yl)vinyl)phenyl)acrylic acid]",++ (++ = a single % value ≧ 40%),≤ 100,≥ 40,≤ 100
"N#Cc1c(/C(=C(/c2ccc(F)cc2Cl)C2CCC2)c2ccc(/C=C/C(=O)O)cc2)ccc2nccn12 [Example 224, (E)-3-(4-((E)-2-(2-Chloro-4-fluorophenyl)-1-(5-cyanoimidazo[1,2-a]pyridin-6-yl)-2-cyclobutylvinyl)phenyl)acrylic acid]",++ (++ = a single % value ≧ 40%),≤ 100,≥ 40,≤ 100
"N#Cc1c(/C(=C(/c2ccc(F)cc2Cl)C2CCC2)c2ccc(/C=C/C(=O)O)cc2)ccc2[nH]nc(F)c12 [Example 225, (E)-3-(4-((E)-2-(2-Chloro-4-fluorophenyl)-1-(4-cyano-3-fluoro-1H-indazol-5-yl)-2-cyclobutylvinyl)phenyl)acrylic acid]",++ (++ = a single % value ≧ 40%),≤ 100,≥ 40,≤ 100
